# Experimental data reported in patent US5597798A, “Taxol and epidermal growth factor used to enhance treatment of ovarian cancer” (The Regents of the University of California, priority 1994, dated 1997).
# Where two headings read alike, the source gives them in different places.
# Assays:
# [1] = tested on: 2008 human ovarian carcinoma cells; assay: Colony forming assay, effect of EGF on sensitivity to cytotoxic agents; format: cell-based
# [2] = tested on: cellular cAMP; assay: Determination of cellular cAMP content; format: cell-based; conditions: for cAMP level, 10 min. mean: 10 min treatment; for cAMP level, 10 min. mean / cAMP level, 60 min. mean: means of 6 experiments; for cAMP level, 60 min. mean: 60 min treatment
# [3] = tested on: 2008/C13*5 cells; assay: Colonogenic assay, effect of TPA on DDP sensitivity of DDP-resistant cells; format: cell-based, human; conditions: TPA and DDP concurrently for 1 h
# From the text: The following cell lines were used in these studies: 2008 human ovarian carcinoma (Disaia, et al., Am. J. Obstet. Gynecol. 114:978 (1972)), COLO 316 human ovarian carcinoma (Woods et al., Cancer Res. 39:4449 (1979)), a DDP resistant variant 2008/C13*, derived from the parent 2008 cell line (Andrews, et al., Cancer Res. 45:6250 (1985)), A549 non-small cell lung cancer (Lieber et al., Int. J. Cancer 17:62 (1976)), NCI-H520 squamous cell lung cancer (Brower et al., Cancer Res. 46: 798 (1986)), NCI-H596 adenosquamous lung cancer (Banks-Schlegel et al., Cancer Res. 45: 1187 (1985)), UMC 31 small cell lung cancer cells (Graziano et al., Genes, Chromosomes and Cancer 3: 283 (1991)), GLC4 small cell lung cancer cells (Zijlstra et al., Cancer Res. 47: 1780 (1987)), UMCC10b head and neck cancer cells (Krause et al., Arch. Otolayngol. 107: 703 (1981)), 5637 bladder cancer cells (Fogh et al., J. Natl. Cancer Inst. 58: 209 (1977)), MIA PaCa-2 pancreatic cancer cells (Yunis et al., Int. […]
# Colony forming assays were used to assess the effect of each drug on the sensitivity of various tumor cell lines to cytotoxic agents (Andrews, et al., Chem.-Biol. Interact 65:51-58 (1988)). […] Colonies of over 60 cells were counted macroscopically.
# The 2008/C13*5 cell line is 8-10-fold resistant to DDP. […] Drug cytotoxicity was determined by colonogenic assay on plastic dishes. […]
# [4] = tested on: 2008 cells; assay: Cellular accumulation of [195mPt]DDP; format: cell-based, human; conditions: concurrent 60 min
# Procedure: Cell-associated ^195m Pt was determined by as a measure of DDP accumulation. For DDP accumulation studies, subconfluent monolayers were treated with 37° C. RPMI 1640 medium containing 20 μM [^195m Pt]-DDD. The dishes were immediately returned to the incubater. After 1 h incubation, the medium was aspirated, the cells were washed rapidly with 4° C. PBS 4 times. Two ml of 1N NaOH was added and the cells allowed to digest overnight. A forty μl aliquot was used for determination of protein content by the method of Bradford (Bradford, Anal. Biochem. 72:248-254 (1976)), and the remaining […] was counted in glass tubes on a Trak 1191 gamma counter (Tracer Analytic, EIK Grove Village, Ill.). Columns represent the mean values of 3 experiments performed with duplicate cultures. The bars represent the standard deviation.
# Cultured 2008 cells were treated concurrently with [^195m Pt]DDP and TPA for 60 min. A vehicle control consisting of an appropriate dilution of acetone was run concurrently. […] Cells treated with medium alone contained 140±13 pmol/mg of protein, whereas those treated with the acetone control contained 141±7 pmol/mg of protein, and those treated with TPA contained 143±21 pmol/mg of protein.
# [5] = Colony formation, TPA sensitization to DDP with cycloheximide (CHM); format: cell-based; conditions: 2 μM DDP with 10^-7 M TPA 1 h
# [6] = tested on: human KB carcinoma cells; conditions: TPA treatment; cited from earlier work
# [7] = tested on: 2008 cells; assay: Colony forming (colonogenic) assay, effect of TPA, phorbol and staurosporine on DDP sensitivity
# [8] = tested on: human EGF receptor; assay: Expression of human EGF receptor in transfected C127 cells (monoclonal antibody 528 staining); format: cell-based; conditions: Desferrioxamine 10 μM for 60 hs
# [9] = tested on: C127 mouse fibroblasts transfected with the human EGF receptor gene; assay: Tetrazolium (MTT) growth rate assay, DDP sensitivity; format: cell-based
# Procedure: Expression of the transferrin receptor gene is normally under the control of the transferrin […], and is regulated by iron (Owen and Kuhn, EMBO J. 6:1287 (1987)). Incubation with the iron chelator desferrioxamine induces expression of the transferrin receptor gene (Bridges and Cudkowicz, J. Biol. Chem. 259:12970 (1984)). […] Closed squares, transfected […] mouse fibroblasts pretreated with desferrioxamine; open squares, untreated cells. […] Louis, Mo.) was prepared at 1 mg/ml in DME media and on day 7, 50 μl are added to the microculture wells. After a 4 h incubation at 37° C., all the media was removed from each well, and 150 μl of 100% DMSO (dimethyl sulfoxide) was added to solubilize the MTT-formazan product. After thorough mixing, absorbance at 540 nm was measured with a Molecular Devices Vmax Kinetic microplate reader.
# [10] = EGF and the cytotoxic agent concurrently for 1 h
# [11] = Homo sapiens, Ovarian carcinoma cell, 1 h, read-out: IC50 in absence of EGF
# [12] = mean ± SD of at least 3 experiments
# [13] = read-out: IC50 in presence of EGF, EGF and the cytotoxic agent concurrently for 1 h
structure (smiles),measurement,setting,value
O=c1[nH]cc(F)c(=O)[nH]1 [5-fluorouracil],effect of EGF on sensitivity of 2008 cells to the agent (in words),[1]; [10],significant increase in sensitivity
same,IC50,[1]; [11],20 µM
same,Dose modifying factor (ratio of the IC50 values in control and EGF-treated cells),[1]; [12],1.8 ± 0.3
same,IC50,[1]; [13],11 µM
C=C[C@@]1(C)CC(=O)[C@]2(O)[C@@]3(C)[C@@H](O)CCC(C)(C)[C@@H]3[C@H](O)[C@H](OC(C)=O)[C@@]2(C)O1 [Forskolin],increase in cAMP content,[2],297 fold
same,"cAMP level, 10 min. mean",[2],2135.0 pmol/mg protein
same,"cAMP level, 60 min. mean",[2],6365.0 pmol/mg protein
CCCCCCCCCCCCCC(=O)O[C@@H]1[C@@H](C)[C@@]2(O)[C@@H](C=C(CO)C[C@]3(O)C(=O)C(C)=C[C@@H]23)[C@H]2C(C)(C)[C@]12OC(C)=O [TPA],sensitization to DDP,[3],2.6 fold
same,effect of TPA on cellular accumulation of [195mPt]DDP,[4],neither the acetone nor the TPA produced any effect on cellular accumulation
same,"cAMP level, 10 min. mean",[2],2.7 pmol/mg protein
same,"cAMP level, % of the untreated control",[2]; 60 min,38%
same,"cAMP level, % of the vehicle control",[2]; 60 min,65%
same,"cAMP level, 60 min. mean",[2],8.2 pmol/mg protein
same,"survival, % of control (S.D.)",[5]; absence of CHM,33±5%
same,"survival, % of controls (S.D.)",[5]; presence of CHM 5 μg/ml,41±7%
same,decrease in sensitivity to etoposide and vincristine,[6],50%
same,"interaction between TPA and DDP, median effect analysis",[7],truly synergistic
same,loss of TPA sensitization,"[7]; 0.1 μM TPA 1 h, 2 μM DDP 1 h",largely disappeared by 7 h
same,"survival, % of control",[7]; 2 μM DDP plus 0.1 μM TPA,38±16%
same,survival normalized to 2 μM DDP alone = 100%,"[7]; 2 μM DDP plus TPA, no staurosporine",44%
same,DDP sensitization after TPA pretreatment,[7]; 24-h exposure to 0.1 μM TPA followed by 1-h exposure to DDP,a similar degree of sensitization was observed
same,increase in DDP sensitivity,[7]; TPA and DDP concurrently for 1 h,2.5 fold
same,toxicity of TPA by itself,[7]; concentrations,did not cause any toxicity by itself
same,DDP sensitization under continuous exposure,[7]; continuous exposure to both TPA and DDP for the full period of colony formation,no change in DDP sensitivity was evident
N.N.O=C([O-])C1(C(=O)[O-])CCC1.[Pt+2] [carboplatin],effect of EGF on sensitivity of 2008 cells to the agent (in words),[1]; [10],significant increase in sensitivity
same,Dose modifying factor (ratio of the IC50 values in control and EGF-treated cells),[1]; [12],1.8 ± 0.4
same,IC50,"[1]; read-out: IC50 in absence of EGF, cytotoxic agent for 1 h, no EGF",120 µM
same,IC50,[1]; [13],67 µM
CC(=O)N(O)CCCCCNC(=O)CCC(=O)N(O)CCCCCNC(=O)CCC(=O)N(O)CCCCCN [desferrioxamine],increase in number of human EGF receptors,[8],approximately 2 fold
same,modulation of DDP sensitivity in the absence of EGF,"[9]; 10 μM desferrioxamine, no EGF",did not modulate the sensitivity of transfected C127 cells in the absence of EGF
same,toxicity to transfected C127 mouse fibroblasts,"[9]; 10 μM, prolonged incubation for 2 weeks",non-toxic
same,increase in sensitivity to the cytotoxicity of DDP vs control cells,"[9]; desferrioxamine treated cells, in the presence of 10 nM EGF",approximately 2 fold
COc1cccc2c1C(=O)c1c(O)c3c(c(O)c1C2=O)C[C@@](O)(C(=O)CO)C[C@@H]3O[C@H]1C[C@H](N)[C@H](O)[C@H](C)O1 [doxorubicin],effect of EGF on sensitivity of 2008 cells to the agent (in words),[1]; [10],no significant effect
same,IC50,[1]; [11],1.5 µM
same,Dose modifying factor (ratio of the IC50 values in control and EGF-treated cells),[1]; [12],1.1 ± 0.2
same,IC50,[1]; [13],1.4 µM
N[C@@H](Cc1ccc(N(CCCl)CCCl)cc1)C(=O)O [melphalan],Dose modifying factor (ratio of the IC50 values in control and EGF-treated cells),[1],1.4 ± 0.4
same,effect of EGF on sensitivity of 2008 cells to the agent (in words),[1],the effect did not reach the level of statistical significance
same,IC50,[1]; [11],12 µM
same,IC50,[1]; read-out: IC50 in presence of EGF,9 µM
CC1=C[C@H]2[C@@]3(O)[C@H](C)[C@@H](O)[C@]4(O)[C@H]([C@@H]3C=C(CO)C[C@]2(O)C1=O)C4(C)C [phorbol],effect of phorbol on DDP sensitivity,[7]; 10^7 M phorbol for 1-h with DDP,"failed to enhance DDP sensitivity, and, in fact slightly reduced it"
CN[C@@H]1C[C@H]2O[C@@](C)([C@@H]1OC)n1c3ccccc3c3c4c(c5c6ccccc6n2c5c31)C(=O)NC4 [staurosporine],effect of staurosporine by itself on sensitivity to DDP,[7]; control experiments,did not enhance or inhibit sensitivity to DDP
same,"survival, % of that produced by DDP alone","[7]; staurosporine pretreatment 1 h, then DDP and TPA (all three agents)",96%
CC(=O)O[C@H]1C(=O)[C@@]2(C)[C@H]([C@H](OC(=O)c3ccccc3)[C@]3(O)C[C@H](OC(=O)[C@H](O)[C@@H](NC(=O)c4ccccc4)c4ccccc4)C(C)=C1C3(C)C)[C@]1(OC(C)=O)CO[C@@H]1C[C@@H]2O [taxol],effect of EGF on sensitivity of 2008 cells to the agent (in words),[1]; [10],significant increase in sensitivity
same,IC50,[1]; [11],0.01 µM
same,IC50,"[1]; Homo sapiens, Ovarian carcinoma cell, 1 h, read-out: IC50 in presence of EGF",0.007 µM
same,Dose modifying factor (ratio of the IC50 values in control and EGF-treated cells),[1]; [12],1.4 ± 0.1
